Data taken from US20090005443A1, “Treatment of Depression” (priority 2007, published 2009).
Where “and” joins values, the source holds several entries; their conditions need not be identical. Identical values can stand only once.

Test system: Patients with MDD
Format: in vivo
Details: for Ham-D change: baseline to end value, oral tablets, no visit qualifier given; for Ham-D change / Ham-D change (by penultimate visit): individual MDD patient; for Ham-D change (by penultimate visit): baseline to value by penultimate visit; for Reduction in patient depression, measured using the Hamilton-D rating scale: the five patients who completed the trial protocol (three tramadol, two amitriptyline)
Description: A Single Centre, Open Labelled, Comparative, Parallel Pilot Study to Evaluate the Antidepressant Activity of Tramadol in the Treatment of Major Depressive Disorder (MDD).
The investigational drug was administered in tablet form orally, with an initial dose of 200 mg daily for 2 weeks and then maintenance at 200-400 mg daily for a further 14 weeks.
Patients with MDD aged between 18 to 65 years old.
To evaluate the antidepressant activity of tramadol by comparing the change in Ham-D scores of patients with MDD when treated with tramadol as compared with amitriptyline.
Remission is defined as ≦7 on the 17 item Ham-D scale upon completion of week 8 of trial. Response is defined as ≧50% decrease from baseline depression on 17 item Ham-D score upon completion of week 8 of trial. Partial response is defined as <50% but ≧25% decrease from base line depression on 17 item Ham-D Scale. Recovery is defined as at least 8 weeks free from depression, as diagnosed according to DSM-IV-TR criteria.
This was a comparative, single centre, parallel, open-label randomized study in which half of the study population will receive tramadol and the other half will receive amitriptyline.
The primary endpoint is the treatment response of each study subject, as measured on the Ham-D 17-item scale (Hamilton Mass.). Study entry requires a Ham-D score of ≧15. To achieve remission, a cut-off score of ≦7 will be applied. Response will be defined as a ≧50% drop in score and a partial response will be defined as <50% but ≧25% drop in score. Recovery will be defined as at least 8 weeks free of major depression, as diagnosed according to DSM-IV-TR criteria.
In an open-label study comparing the treatment of Major Depressive Disorder with tramadol and amitriptyline, sixteen patients have been enrolled and five have completed the trial protocol. Of those five, three had received tramadol and two had received amitriptyline. […] A further eight patients are displaying solid therapeutic responses and there have been three drop-outs. Information on therapeutic responses of the first 12 patients is summarised below.

Structure (SMILES) | Ham-D change (17-item Ham-D score) | Ham-D change (by penultimate visit) (17-item Ham-D score) | Drop-out because of AE (human, in vivo) | Reduction in patient depression, measured using the Hamilton-D rating scale | Ham-D change (by visit 4 of 7) (17-item Ham-D score, baseline to value by visit 4 of 7, individual MDD patient)
CN(C)CCC=C1c2ccccc2CCc2ccccc21 [Amitriptyline, amitriptyline] | 22 to 0 | 19 to 4 (by penultimate | Dropped out after Visit 2 | clinically significant reduction in patient depression | –
COc1cccc(C2(O)CCCCC2CN(C)C)c1 (centres unmarked) [Tramadol] | 23 to 0 | 26 to 0 (by penultimate and 26 to 4 (by penultimate (2×) | – | clinically significant reduction in patient depression | 18 to 16 (by visit 4 of 7)
